Laboratory results published in patent publication US11633335B2, “Skin cleansing composition” (KAO CORPORATION, priority 2017, dated 2023).

Columns and labels:
[1] = Keratotic plug detergency (during cleansing): collapse state of keratotic plugs one minute after contact with the sample; design: species or system human; conditions: contact with the sample for 1 minute; samples of Table 1
Method: Keratotic plugs in the nasal region were removed with “Biore Nose Pack (manufactured by Kao Corporation)”, the resulting keratotic plugs on the pack were gently taken out with tweezers.
The resulting keratotic plugs were placed on a slide glass and were covered with a cover glass, and 0.05 mL of a sample was dropwise added to an edge of the cover glass. Consequently, the sample entered into the gap between the slide glass and the cover glass by capillary phenomenon and was brought into contact with the keratotic plugs. The contact of the keratotic plugs and the sample was recorded with a digital microscope (VHX-5000, manufactured by Keyence Corporation, magnification: 150×), and the penetration of the sample into the keratotic plugs and the collapse state of the keratotic plugs were evaluated after one minute from the contact of the keratotic plugs with the sample. The results of each evaluation are shown in the columns “Keratotic plug detergency (penetration)” and “Keratotic plug detergency (during cleansing)” in Tables. The measurements were performed at 25° C.
The penetration was relatively evaluated by criteria with 11 ratings starting from the rating 1 “the sample hardly penetrated into the keratotic plug” to the rating 11 “the sample penetrated to the center of the keratotic plug”. The collapsibility by the detergency against keratotic plug was relatively evaluated by criteria with 11 ratings starting from the rating 1 “almost no change is observed in the external appearance of the keratotic plug” to the rating 11 “peeling or separation is observed in the area from the surface layer to the central portion of the keratotic plug (the initial appearance of the keratotic plug is not retained)”.

[2] = Keratotic plug detergency after washing with water: collapse state one minute after contact with water; design: species or system human; conditions: sample substituted with water; samples of Table 1
Source text: The penetration was relatively evaluated by criteria with 11 ratings starting from the rating 1 “the sample hardly penetrated into the keratotic plug” to the rating 11 “the sample penetrated to the center of the keratotic plug”. The collapsibility by the detergency against keratotic plug was relatively evaluated by criteria with 11 ratings starting from the rating 1 “almost no change is observed in the external appearance of the keratotic plug” to the rating 11 “peeling or separation is observed in the area from the surface layer to the central portion of the keratotic plug (the initial appearance of the keratotic plug is not retained)”. After one minute from the contact of the keratotic plugs with the sample, Kimwipes (registered trademark) was brought into contact with an edge of the cover glass to remove the sample under the cover glass. […] The results of the evaluation are shown in the column “Keratotic plug detergency (during washing with water)” in Table. The measurements were performed at 25° C.

[3] = Keratotic plug detergency (penetration): penetration of the sample into keratotic plugs one minute after contact, digital microscope; design: species or system human; conditions: contact with the sample for 1 minute; samples of Table 1
Method: Keratotic plugs in the nasal region were removed with “Biore Nose Pack (manufactured by Kao Corporation)”, the resulting keratotic plugs on the pack were gently taken out with tweezers. […] Consequently, the sample entered into the gap between the slide glass and the cover glass by capillary phenomenon and was brought into contact with the keratotic plugs. The contact of the keratotic plugs and the sample was recorded with a digital microscope (VHX-5000, manufactured by Keyence Corporation, magnification: 150×), and the penetration of the sample into the keratotic plugs and the collapse state of the keratotic plugs were evaluated after one minute from the contact of the keratotic plugs with the sample. The results of each evaluation are shown in the columns “Keratotic plug detergency (penetration)” and “Keratotic plug detergency (during cleansing)” in Tables. The measurements were performed at 25° C. The penetration was relatively evaluated by criteria with 11 ratings starting from the rating 1 “the sample hardly penetrated into the keratotic plug” to the rating 11 “the sample penetrated to the center of the keratotic plug”. The collapsibility by the detergency against keratotic plug was relatively evaluated by criteria with 11 ratings starting from the rating 1 “almost no change is observed in the external appearance of the keratotic plug” to the rating 11 “peeling or separation is observed in the area from the surface layer to the central portion of the keratotic plug (the initial appearance of the keratotic plug is not retained)”.

[4] = cited from earlier work
[5] = system: insoluble protein (seine protein); test: Evaluation of effect of suppressing protein aggregation (precipitation of insoluble protein); conditions: sample of Table 1
Method: Thirty milliliters of a sample and 0.06 g of an insoluble protein (seine protein) were placed in a 35-mL standard glass bottle, and the concentration of the insoluble protein was adjusted to 0.2 mass % (test sample). Separately, a standard sample was prepared by using water instead of the sample and adjusting the concentration of the insoluble protein to 0.2 mass %. Subsequently, the standard glass bottles were sufficiently shaken and stirred up and down (shake width: 15 cm, 20 times at a rate of 5 times for 3 seconds) in a thermostatic chamber of 25° C. and were left to stand for 3 minutes. The precipitation state of the insoluble protein was then visually verified, and the ratio of the amount of the precipitated standard sample to the amount of the precipitated test sample (the height of the precipitate in each standard glass bottle was measured as the precipitation amount), (precipitation amount of standard sample)/(precipitation amount of test sample), was calculated. A higher ratio indicates a higher effect of suppressing protein aggregation.

Row | Compound | collapse of keratotic plugs in contact with the sample, assumption of cleansing (in words) [1] | collapse of keratotic plugs during washing with water (in words) [2] | penetration of the sample into keratotic plugs (in words) [3] | solubility in water (in words) [4] | action on proteins (in words) [5]
1 | O=P([O-])([O-])[O-].[Na+].[Na+].[Na+] [trisodium phosphate] | the collapse of the keratotic plugs did not progress | the collapse of keratotic plugs did not progress | the sample hardly penetrated into keratotic plugs |  | 
2 | CC(C)(N)CO [AMP, 2-amino-2-methyl-1-propanol] |  | further accelerating the collapse of keratotic plugs | the sample penetrated into keratotic plugs | readily dissolved in water | 
3 | O=C([O-])O.[Na+] [sodium hydrogen carbonate] | the collapse of the keratotic plugs did not progress | the collapse of keratotic plugs did not progress | the sample hardly penetrated into keratotic plugs |  | 
4 | sodium polyoxyethylene (2) lauryl ether sulfate [POE (2) sodium lauryl sulfate] | the collapse of the keratotic plugs did not progress |  | hardly penetrated into the keratotic plugs |  | the action on proteins was strong to dissolve the proteins
5 | O=P([O-])([O-])O.[Na+].[Na+] [disodium hydrogen phosphate] | the collapse of the keratotic plugs did not progress | the collapse of keratotic plugs did not progress | the sample hardly penetrated into keratotic plugs |  | 
6 | NC(CO)(CO)CO [Tris, 2-amino-2-hydroxymethyl-1,3-propanediol] |  |  |  | readily dissolved in water | 
